According to US7556806B2, “Carbohydrate-based synthetic vaccines for HIV” (University of Maryland Biotechnology Institute, priority 2002, dated 2009):

Tested on: MAb 2G12 binding to HIV-1IIIB gp120
Assay: Competitive ELISA: inhibition of 2G12 binding to immobilized gp120 by carbohydrate antigens
Design: species or system human
Conditions: for Relative Affinity, Molar basis / Relative Affinity, Valency-corrected: Table 1; for Relative Affinity, Molar basis: from IC50, relative to Man9GlcNAc2Asn = 1.0; for Relative Affinity, Valency-corrected: from IC50, relative to Man9GlcNAc2Asn = 1.0, per oligosaccharide subunit; for affinity for 2G12 binding, Man9GlcNAc compared with Man9GlcNAc2Asn: result in words
Experimental: Competitive ELISAs were performed to determine the relative inhibition potency of various carbohydrate antigens against the binding of 2G12 to gp120. Microtiter plates were coated with human cell line 293-expressed HIV-1IIIB gp120 (100 ng/ml) overnight at 4° C. After washing, non-specific binding was blocked with 5% BSA in PBS for 1 h at room temperature. The plates were then washed three times with 0.1% Tween-20/PBS. Serial dilutions (1:2) of various carbohydrate antigens were mixed with an equal volume of MAb 2G12 (fixed final concentration of 5 ng/ml) and added to the plates. The plates were incubated for 1 h at 37° C. and washed with washing buffer. To the plates was added a 100-μl solution of 1:3000 diluted horseradish peroxidase-conjugated goat anti-human IgG in 0.5% BSA/PBS. After incubation for 1 h at 37° C., the plates were washed again and a 100-μl solution of 3,3′,5,5′-tetramethyl benzidine (TMB) was added. Color was allowed to develop for 5 min, and the color reaction was quenched through adding a 100-μl solution of 0.5 M H2SO4 to each well. The optical density was then measured at 450 nm.
The binding affinity of the high-mannose oligosaccharides was examined by competitive inhibition of 2G12 binding to immobilized gp120, as shown in FIG. 14.
The synthetic Man9-clusters were examined for competitive inhibition of 2G12 binding to immobilized gp120 (FIG. 16).

Compound	Relative Affinity, Molar basis	Relative Affinity, Valency-corrected	affinity for 2G12 binding, Man9GlcNAc compared with Man9GlcNAc2Asn	fold more effective in inhibition of 2G12 binding than Man5GlcNAc (on a molar basis, versus Man5GlcNAc)	fold more effective in inhibition of 2G12 binding than Man6GlcNAc (on a molar basis, versus Man6GlcNAc)
CC(=O)N[C@H]1C(O)O[C@H](CO)[C@@H](O[C@@H]2O[C@H](CO[C@H]3O[C@H](CO[C@H]4O[C@H](CO)[C@@H](O)[C@H](O)[C@@H]4O)[C@@H](O)[C@H](O[C@H]4O[C@H](CO)[C@@H](O)[C@H](O)[C@@H]4O)[C@@H]3O)[C@@H](O)[C@H](O[C@H]3O[C@H](CO)[C@@H](O)[C@H](O)[C@@H]3O)[C@@H]2O)[C@@H]1O (stereo partly drawn) [Man5GlcNAc]	0.004	0.004	–	–	–
CC(=O)N[C@@H]1[C@@H](O)[C@H](O[C@@H]2O[C@H](CO)[C@@H](O[C@@H]3O[C@H](CO[C@H]4O[C@H](CO[C@H]5O[C@H](CO)[C@@H](O)[C@H](O)[C@@H]5O[C@H]5O[C@H](CO)[C@@H](O)[C@H](O)[C@@H]5O)[C@@H](O)[C@H](O[C@H]5O[C@H](CO)[C@@H](O)[C@H](O)[C@@H]5O[C@H]5O[C@H](CO)[C@@H](O)[C@H](O)[C@@H]5O)[C@@H]4O)[C@@H](O)[C@H](O[C@H]4O[C@H](CO)[C@@H](O)[C@H](O)[C@@H]4O[C@H]4O[C@H](CO)[C@@H](O)[C@H](O)[C@@H]4O[C@H]4O[C@H](CO)[C@@H](O)[C@H](O)[C@@H]4O)[C@@H]3O)[C@H](O)[C@H]2NC(C)=O)[C@@H](CO)O[C@H]1NC(=O)C[C@H](N)C(=O)O [Man9GlcNAc2Asn]	1.0	1.0	essentially the same affinity	–	–
CC(=O)N[C@H]1C(O)O[C@H](CO)[C@@H](O[C@@H]2O[C@H](CO[C@H]3O[C@H](CO[C@H]4O[C@H](CO)[C@@H](O)[C@H](O)[C@@H]4O[C@H]4O[C@H](CO)[C@@H](O)[C@H](O)[C@@H]4O)[C@@H](O)[C@H](O[C@H]4O[C@H](CO)[C@@H](O)[C@H](O)[C@@H]4O[C@H]4O[C@H](CO)[C@@H](O)[C@H](O)[C@@H]4O)[C@@H]3O)[C@@H](O)[C@H](O[C@H]3O[C@H](CO)[C@@H](O)[C@H](O)[C@@H]3O[C@H]3O[C@H](CO)[C@@H](O)[C@H](O)[C@@H]3O[C@H]3O[C@H](CO)[C@@H](O)[C@H](O)[C@@H]3O)[C@@H]2O)[C@@H]1O (stereo partly drawn) [Man9GlcNAc]	0.84	0.84	essentially the same affinity	244 fold	85 fold
Man6GlcNAc	0.012	0.012	–	–	–
